This is an account of results in patent US7235577B1 (priority 2000, dated 2007).

In general, Kd refers to the constant that tells how readily two partners part at equilibrium. The melting point is the temperature, or range, at which the solid turns liquid. Broadly, the inhibition is the change of the read-out against control, counted positive when it falls.

The target of data set [1] is human IKCa1 channel (Homo sapiens, UniProt O15554). Kind of data set: cell-based. As to conditions: for IKCa1 inhibition compared with clotrimazole: refers to TABLE 8. As for the experimental part:
COS-7 cells, maintained in Dulbecco's modified Eagle's medium (DMEM) containing 10% heat-inactivated fetal calf serum, 4 mM L-glutamine and 1 mM Na^+ pyruvate, were transiently transfected with hlKCa1.
Electrophysiological experiments were carried out in the whole-cell configuration of the patch-clamp technique using an EPC-9 amplifier (HEKA Elektronik, Lambrecht Germany) interfaced to a computer running acquisition and analysis software (Pulse and Pulsfit; HEKA Elektronik). Pipettes were pulled from soft glass capillaries, coated with Sylgard (Dow-Corning, Midland, Mich.), and fire polished to resistances of 2.0–4.5 MΩ measured in the bath. COS-7 cells were trypsinized and plated on glass coverslips 3 h before measurement. […] To prevent activation of the native chloride channels in COS-7 cells an aspartate Ringer solution was used as an external solution (160 mM Na^+ aspartate, 4.5 mM KCl, 2 mM CaCl2, 1 mM MgCl2, 5 mM HEPES, adjusted to pH 7.4 with NaOH, with an osmolarity of 290–310 mosM). 200 ms voltage ramps from −120 mV to 40 mV every 10 s were used. The holding potential in all experiments was −80 mV. Series resistance compensation was not employed. The reduction of slope conductance at −80 mV was used to determine the Kd-value by fitting the values to the Hill equation with a Hill coefficient of unity.

The target of data set [2] is CYP3A4 (Homo sapiens, UniProt P08684). Kind of data set: in vitro. As to conditions: human. As for the experimental part: The test substances shown in Table 8 were evaluated for their inhibitory effect on the catalytic activity of human cytochrome P450 enzyme. Cytochrome P450 3A4 (CYP3A4) is involved in many drug-drug interactions and in many other pathways in the body including the catabolism of steroids and xenobiotics. Inhibition of this enzyme was measured in 96 well plates with 7-benzyloxy-4-trifluoro-methylcoumarin (BFC) as the substrate and cDNA-derived enzymes in microsomes prepared from baculovirus-infected insect cells.
The inhibition study consisted of the determination of inhibition by the test substance on CYP3A4 catalytic activity. […] The compounds were prepared as 10 mM stock solutions in acetonitrile. Metabolism of the model substrate was assayed by the production of 7-hydroxy-4-trifluoromethylcoumarin metabolite. The metabolite was detected by fluorescence.
Table 10 below provides a list of the name of enzymes examined, the catalog number of the microsomes used as a source of the enzyme, the concentration of the model substrate used, the amount of enzyme used, the final buffer concentration, and the positive control compound.
Assays were conducted in 96 well microtiter plates. The BFC substrate was initially prepared in acetonitrile. […] Six wells were used for one test. […] For the positive controls, 12 wells in a row were used for one test. The positive control inhibitor/enzyme combination was examined in duplicate rows. Wells 1 to 8 contained serial 1:3 dilutions of the inhibitors. The highest inhibitor concentration were as described in the table above. Wells 9 and 10 contained no inhibitor and wells 11 and 12 were blanks for background fluorescence (stop solution added before the enzyme).
After buffer, cofactors and inhibitor addition, the plates were pre-warmed to 37° C. Incubations were initiated by the addition of pre-warmed enzyme and substrate. The final cofactor concentrations were 1.3 mM NADP, 3.3 mM glucose-6-phosphate and 0.4 U/ml glucose-6-phosphate dehydrogenase. The final incubation volume was 0.2 ml. Incubations were carried out for 30 minutes [CYP3A4 (BFC)] and stopped by the addition of 0.075 ml of 80% acetonitrile-20% 0.5M Tris. Fluorescence per well was measured using a BMG FLUOstar fluorescence plate reader. The BFC metabolite 7-hydroxy-4-trifluoromethyl-coumarin was measured using an excitation wavelength of 410 nm and emission wavelength of 538 nm.

Where [3] appears, read: read-out: Kd for block of IKCa1, hIKCa1 in COS-7 cells, reduction of slope conductance at −80 mV, 1 μM free Ca++ in pipette.
The mark [4] stands for this setting: hIKCa1 in COS-7 cells, reduction of slope conductance at −80 mV, 1 μM free Ca++ in pipette.

Read-outs that look alike come from different tables or passages of the source.

Sequence of CYP3A4 (P08684 whole entry): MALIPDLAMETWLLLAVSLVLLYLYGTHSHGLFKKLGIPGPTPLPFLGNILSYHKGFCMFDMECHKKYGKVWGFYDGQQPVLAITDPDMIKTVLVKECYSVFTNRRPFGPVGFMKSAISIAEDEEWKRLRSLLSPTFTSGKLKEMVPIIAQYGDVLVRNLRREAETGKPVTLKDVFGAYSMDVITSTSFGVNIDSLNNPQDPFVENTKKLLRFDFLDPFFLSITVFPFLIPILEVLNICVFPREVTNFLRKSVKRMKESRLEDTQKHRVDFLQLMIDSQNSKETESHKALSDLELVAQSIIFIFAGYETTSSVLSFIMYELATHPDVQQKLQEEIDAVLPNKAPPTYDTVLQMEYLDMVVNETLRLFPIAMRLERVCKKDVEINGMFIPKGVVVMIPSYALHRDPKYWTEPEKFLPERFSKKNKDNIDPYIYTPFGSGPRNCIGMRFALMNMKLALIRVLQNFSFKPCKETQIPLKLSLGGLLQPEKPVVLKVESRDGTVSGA
Sequence of human IKCa1 channel (O15554 whole entry): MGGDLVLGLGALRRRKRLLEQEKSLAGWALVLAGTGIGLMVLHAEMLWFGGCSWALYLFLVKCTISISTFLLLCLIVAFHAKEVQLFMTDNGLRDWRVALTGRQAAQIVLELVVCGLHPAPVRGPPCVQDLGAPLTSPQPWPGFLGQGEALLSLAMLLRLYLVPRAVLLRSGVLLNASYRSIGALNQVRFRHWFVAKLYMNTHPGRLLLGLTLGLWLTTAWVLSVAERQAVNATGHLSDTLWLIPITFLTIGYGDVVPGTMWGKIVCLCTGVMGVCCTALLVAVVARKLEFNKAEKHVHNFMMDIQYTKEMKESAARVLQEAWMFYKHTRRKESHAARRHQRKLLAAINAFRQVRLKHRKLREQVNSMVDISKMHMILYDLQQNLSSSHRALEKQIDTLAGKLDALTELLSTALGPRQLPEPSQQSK

As for `OC(c1ccccc1)(c1ccccc1)c1ccccc1F` [Compound T36, (2-Fluorophenyl)diphenyl methanol], the melting point worked out at 116 °C. In addition, the Kd in data set [1] was 0.7 µM.
Turning to `OC(c1ccccc1)(c1ccccc1)c1cccc(Cl)c1` [Compound T2, (3-Chlorophenyl)diphenyl methanol], the melting point was 53 °C. Also, the Kd in data set [1] was determined as 0.53 µM.
Compound `c1ccc(C(c2ccccc2)(c2ccccc2)n2cccn2)cc1` [Compound T11, 1-Trityl-1H-pyrazole] displayed a melting point of 202 °C. Further, in data set [1], the affinity, expressed as Kd, was 2.5 µM.
For `NC(=O)NC(c1ccccc1)(c1ccccc1)c1ccccc1F` [Compound T45, N-[(2-Fluorophenyl)diphenylmethyl] urea], in that order: 225 °C and 1 µM.
The compound `NC(=O)NC(c1ccccc1)(c1ccccc1)c1ccccc1Cl` gave a melting point of 243 °C.
`OC(c1ccccc1)(c1ccccc1)c1cccs1` [Compound T9, (2-Thienyl)diphenyl methanol]: the melting point is 129 °C. This compound yielded a Kd in data set [1] of 1.5 µM.
For the compound `CCOC(=O)C(C(=O)OCC)C(c1ccccc1)(c1ccccc1)c1ccccc1` [Compound T74], in data set [1] (setting [3]), the Kd is 0.6 µM. Further, the inhibition at 30 min, 10 μM in data set [2] was determined as 4%.
As to `c1ccc(C(Nc2nccs2)(c2ccccc2)c2ccccc2)cc1`, the melting point was 213 °C.
For `OC(c1ccccc1)(c1ccccc1)c1ccc(F)cc1` [Compound T12, (4-Fluorophenyl)diphenyl methanol], the melting point is 120.5 °C. The same compound showed a Kd in data set [1] of 0.7 µM.
The like results for `Clc1ccccc1C(NCCCNC(c1ccccc1)(c1ccccc1)c1ccccc1Cl)(c1ccccc1)c1ccccc1` [Compound T49, N,N-1,3-[(2-Chlorophenyl)diphenylmethyl]-amino propane] were, in that order, 198 °C and 32 µM.
The like results for `NC(=O)NC(c1ccccc1)(c1ccccc1)c1ccccc1` [Compound T24, N-trityl urea] were, in that order, 238 °C and 8 µM.
In the case of `c1ccc(C(NCc2ccc(CNC(c3ccccc3)(c3ccccc3)c3ccccc3)cc2)(c2ccccc2)c2ccccc2)cc1` [Compound T23, 1,4-Ditritylaminomethyl benzene], the melting point is 201 °C. For the same compound, the “Kd for block of IKCa1” value in data set [1] (setting [4]) is listed as “No effect at 1 μM”.
For the compound `OC(c1ccccc1)(c1ccc(Cl)cc1)c1ccc(Cl)cc1` [Compound T4, Bis-(4-chlorophenyl)phenyl methanol], the melting point came out at 86 °C. Besides, in data set [1] (setting [4]), the “Kd for block of IKCa1” value is on record as “No effect at 1 μM”.
In the case of `CC(=O)NC(c1ccccc1)(c1ccccc1)c1ccccc1F` [Compound T76, N-(2-Fluorophenyl)diphenylmethyl acetamide], the melting point is 215 °C. In data set [1], the Kd came to 1.2 µM.
The compound `CC(=O)NC(c1ccccc1)(c1ccccc1)c1ccccc1C(F)(F)F` [Compound T83, N-(2-Trifluoromethylphenyl)diphenylmethyl acetamide] gave a melting point of 185 °C. Binding in data set [1] was characterised by a dissociation constant (Kd) of 1.5 µM.
The like results for `N#CC(c1ccccc1)(c1ccccc1)c1ccc(F)cc1` [Compound T27, 2-(4-Fluorophenyl)2,2-diphenylacetonitrile] were, in that order, 76 °C and 0.8 µM.
Regarding `c1ccc(C(c2ccccc2)(c2ccccc2)N2CCCC2)cc1` [Compound T7, 1-Tritylpyrrolidine], the melting point is 126 °C. In data set [1], this compound displayed a Kd of 30 µM.
`Clc1ccccc1C(c1ccccc1)(c1ccccc1)n1cccc1` displayed a melting point of 184 °C.
Turning to `OC(c1ccccc1)(c1ccccc1)c1ccc(Cl)cc1` [Compound T1, (4-Chlorophenyl)diphenyl methanol], the melting point stood at 82 °C. In data set [1], this compound showed a Kd of 0.55 µM.
`NC(=O)NC(c1ccccc1)(c1ccccc1)c1ccc(F)cc1` [Compound T31, N-[(4-Fluorophenyl)diphenylmethyl] urea] returned a melting point of 222 °C. The Kd in data set [1] is 8 µM.
For `CC(=O)NC(c1ccccc1)(c1ccccc1)c1ccccc1Cl` [Compound T75, N-(2-chlorophenyl)diphenylmethyl acetamide], the Kd in data set [1] amounted to 1.2 µM. For the same compound, in data set [2], the inhibition at 30 min, 10 μM was -54%.
With `Clc1ccccc1C(NCCNC(c1ccccc1)(c1ccccc1)c1ccccc1Cl)(c1ccccc1)c1ccccc1` [Compound T48, N,N-1,2-[(2-Chlorophenyl)diphenylmethyl]-amino ethane], the melting point came to 228 °C. In data set [1], the Kd was 30 µM.
For the compound `Clc1ccccc1C(Nc1ccncc1)(c1ccccc1)c1ccccc1` [Compound T67, N-[(2-Chlorophenyl)diphenylmethyl]-N-(4-pyridyl)amine], in data set [1], the Kd amounted to 30 µM. Moreover, the inhibition at 30 min, 10 μM in data set [2] amounted to 74%.
`c1ccc(C(c2ccccc2)(c2ccccc2)n2cccc2)cc1` [Compound T10, 1-Trityl-1H-pyrrole] registered a melting point of 243 °C. Binding in data set [1] was put at a Kd of 28 µM.
The like results for `OC(c1ccccc1)(c1cccs1)c1cccs1` [Compound T35, Di-(2-thienyl)phenyl methanol] were, in that order, 86 °C and 9 µM.
For `N#CC(c1ccccc1)(c1ccccc1)c1ccccc1Cl` [Compound T39, 2-(2-Chlorophenyl)2,2-diphenylacetonitrile], in data set [1], binding was put at a Kd of 0.06 µM and the “IKCa1 inhibition compared with clotrimazole” value was “more potent inhibitors of IKCa1 channels than clotrimazole”. Further, the inhibition at 30 min, 10 μM in data set [2] stood at 10%.
`NC(=O)NC(c1ccccc1)(c1ccccc1)c1ccc(Cl)cc1` [Compound T29, N-[(4-Chlorophenyl)diphenylmethyl] urea] showed a melting point of 228 °C. For the same compound, the Kd in data set [1] is 15 µM.
As to `FC(F)(F)c1ccccc1C(c1ccccc1)(c1ccccc1)n1cccn1` [Compound T58, 1-{Diphenyl[2-(trifluoromethyl)-phenyl]methyl}-1H-pyrazole], the Kd in data set [1] was 5 µM. Further, the inhibition at 30 min, 10 μM in data set [2] is -26%.
In data set [1], `FC(F)(F)c1ccn(C(c2ccccc2)(c2ccccc2)c2ccccc2Cl)n1` [Compound T65, 1-[(2-Chlorophenyl)diphenylmethyl]-3-(trifluorormethyl)-1H-pyrazole] yielded a Kd of 2 µM.
The compound `OC(c1ccccc1)(c1ccccc1)c1cccc(C(F)(F)F)c1` [Compound T56, Diphenyl(3-trifluoromethylphenyl) methanol] returned a Kd in data set [1] of 0.65 µM.
Regarding `Clc1ccccc1C(c1ccccc1)(c1ccccc1)n1cnnn1` [Compound T84, 1-[(2-Chlorophenyl)diphenylmethyl]-1H-1,2,3,4-tetrazole], in data set [1], binding was put at a Kd of 0.045 µM and the “IKCa1 inhibition compared with clotrimazole” value was “more potent inhibitors of IKCa1 channels than clotrimazole”.
Take `NC(c1ccccc1)(c1ccccc1)c1ccccc1Cl` [Compound T41, (2-chlorophenyl)diphenylmethyl amine]: the Kd in data set [1] (setting [3]) was determined as 5 µM.
In data set [1], `OC(c1ccccc1)(c1ccc(F)cc1)c1cccs1` (stereo not drawn) [Compound T14, (4-Fluorophenyl)(2-thienyl)phenyl methanol] gave a Kd of 0.8 µM.
For `Fc1ccccc1C(c1ccccc1)(c1ccccc1)n1cccn1` [Compound T46, 1-[(2-Fluorophenyl)diphenylmethyl]-1H-pyrazole], in data set [1], the Kd was determined as 0.04 µM and the “IKCa1 inhibition compared with clotrimazole” value is reported as “more potent inhibitors of IKCa1 channels than clotrimazole”.
As to `N#CC(c1ccccc1)(c1ccccc1)c1ccc(Cl)cc1` [Compound T26, 2-(4-Chlorophenyl)-2,2-diphenylacetonitrile], in data set [1], the affinity, expressed as Kd, was 0.75 µM.
